Experimental data as given in PubChem BioAssay AID330 (DTP/NCI, 2004).
“And” between values parts separate entries of the source, which are not always exact repeats. Equal entries are not always repeated. Inconclusive results and toxic doses are left out.

Tested on: P388 leukemia ip, CD2F1 mice, survival T/C
Assay: NCI In Vivo Anticancer Drug Screen. Data for tumor model P388 Leukemia (intraperitoneal) in CD2F1 (CDF1) mice
Settings: endpoint: median survival time, higher = longer survival
Summary of the method: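 Mice carrying the transplanted tumor received test compound or vehicle. Survival was recorded in each group, and the value is the treated-group measurement divided by that of the vehicle-treated control group.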

[1] = dose: 100.0 mg/kg/injection, schedule: Q04DX003 (ip), vehicle: saline
[2] = dose: 12.5 mg/kg/injection, schedule: Q01DX005 (ip), vehicle: Klucel (hydroxypropylcellulose) (HPC)
[3] = dose: 50.0 mg/kg/injection, schedule: Q01DX009 (ip), vehicle: saline with Tween-80
[4] = dose: 100.0 mg/kg/injection, schedule: Q01DX009 (ip), vehicle: saline with Tween-80
[5] = dose: 200.0 mg/kg/injection, schedule: Q01DX009 (ip), vehicle: saline with Tween-80
[6] = dose: 60.0 mg/kg/injection, schedule: Q01DX005 (ip), vehicle: Klucel (hydroxypropylcellulose) (HPC)
[7] = dose: 120.0 mg/kg/injection, schedule: Q01DX005 (ip), vehicle: Klucel (hydroxypropylcellulose) (HPC)
[8] = dose: 240.0 mg/kg/injection, schedule: Q01DX005 (ip), vehicle: Klucel (hydroxypropylcellulose) (HPC)

## COC1=C(C)C(=O)c2[nH]c(Cl)c(C=O)c2C1=O
dose: 100.0 mg/kg/injection, schedule: Q01DX001 (ip), vehicle: saline with Tween-80
  T/C: 99 % of control
dose: 200.0 mg/kg/injection, schedule: Q01DX001 (ip), vehicle: saline with Tween-80
  T/C: 95 % of control

## O=C1c2ccccc2C(=O)N1CS(=O)(=O)CN1C(=O)c2ccccc2C1=O
[1]
  T/C: 97 % of control
dose: 200.0 mg/kg/injection, schedule: Q04DX003 (ip), vehicle: saline
  T/C: 93 % of control
dose: 400.0 mg/kg/injection, schedule: Q04DX003 (ip), vehicle: saline
  T/C: 97 % of control

## O=C1NCCN1c1cccc([N+](=O)[O-])c1
dose: 12.5 mg/kg/injection, schedule: Q01DX009 (ip), vehicle: saline sonified
  T/C: 90 % of control
dose: 25.0 mg/kg/injection, schedule: Q01DX009 (ip), vehicle: saline sonified
  T/C: 100 % of control
dose: 50.0 mg/kg/injection, schedule: Q01DX009 (ip), vehicle: saline sonified
  T/C: 90 % of control

## Nc1ccc2nc[nH]c(=O)c2c1
dose: 3.0 mg/kg/injection, schedule: Q01DX005 (ip), vehicle: Klucel (hydroxypropylcellulose) (HPC)
  T/C: 96 % of control
dose: 6.25 mg/kg/injection, schedule: Q01DX005 (ip), vehicle: Klucel (hydroxypropylcellulose) (HPC)
  T/C: 95 % of control
dose: 12.0 mg/kg/injection, schedule: Q01DX005 (ip), vehicle: Klucel (hydroxypropylcellulose) (HPC)
  T/C: 101 % of control
[2]
  T/C: 100 % of control
dose: 25.0 mg/kg/injection, schedule: Q01DX005 (ip), vehicle: Klucel (hydroxypropylcellulose) (HPC)
  T/C: 111 % of control

## O=C(Nc1ccccc1)Oc1ccc(/C=N/Sc2cccc([N+](=O)[O-])c2)cc1
[3]
  T/C: 87 % of control
[4]
  T/C: 101 % of control
[5]
  T/C: 106 % of control

## Clc1ccc(Oc2ccc(N3C=Nc4ccc(Oc5ccc(Cl)cc5)cc4C3)cc2)cc1
[4]
  T/C: 110 % of control
[5]
  T/C: 100 % of control
dose: 400.0 mg/kg/injection, schedule: Q01DX009 (ip), vehicle: saline with Tween-80
  T/C: 115 % of control

## Cc1nc2c([N+](=O)[O-])c(N3CCOCC3)c([N+](=O)[O-])cc2[nH]1
dose: 100.0 mg/kg/injection, schedule: Q04DX003 (ip), vehicle: saline with Tween-80
  T/C: 98 % of control
dose: 200.0 mg/kg/injection, schedule: Q04DX003 (ip), vehicle: saline with Tween-80
  T/C: 103 % of control
dose: 400.0 mg/kg/injection, schedule: Q04DX003 (ip), vehicle: saline with Tween-80
  T/C: 101 % of control

## CCS/C(N)=C(\C#N)C(SCC)(SCC)SCC
dose: 50.0 mg/kg/injection, schedule: Q04DX003 (ip), vehicle: saline
  T/C: 107 % of control
[1]
  T/C: 106 % of control

## [Br][Sn]([Br])([CH2][Sn]([Br])([c]1ccccc1)[c]1ccccc1)[c]1ccccc1
[2]
  T/C: 124 % of control

## COC(=O)C1c2cc3c(c(O)c2C(OC2OC(C)C(OC)C(C)(OC)C2OC)CC1(C)O)C(=O)c1c(O)cc2c(c1C3=O)OC1OC2(C)C(O)C(N(C)C=O)C1O (stereo unspecified)
dose: 1.56 mg/kg/injection, schedule: Q04DX003 (ip), vehicle: other
  T/C: 100 % of control
dose: 3.12 mg/kg/injection, schedule: Q04DX003 (ip), vehicle: other
  T/C: 96 % of control
dose: 6.25 mg/kg/injection, schedule: Q04DX003 (ip), vehicle: other
  T/C: 100 % of control
dose: 12.5 mg/kg/injection, schedule: Q04DX003 (ip), vehicle: other
  T/C: 110 % of control
dose: 25.0 mg/kg/injection, schedule: Q04DX003 (ip), vehicle: other
  T/C: 112 % of control

## Cn1c(Cl)cc2nc3ccccc3n2c1=O
dose: 60.0 mg/kg/injection, schedule: Q01DX005 (ip), vehicle: saline with Tween-80
  T/C: 96 % of control
dose: 120.0 mg/kg/injection, schedule: Q01DX005 (ip), vehicle: saline with Tween-80
  T/C: 94 % of control
dose: 240.0 mg/kg/injection, schedule: Q01DX005 (ip), vehicle: saline with Tween-80
  T/C: 100 % of control

## c1ccc2sc(SCCSc3nc4ccccc4s3)nc2c1
[6]
  T/C: 99 % of control
[7]
  T/C: 92 % of control
[8]
  T/C: 89 % of control

## CS(=O)(=O)CCN(N=O)C(=N)N[N+](=O)[O-]
dose: 12.5 mg/kg/injection, schedule: Q04DX003 (ip), vehicle: saline with Tween-80
  T/C: 118 % of control
dose: 25.0 mg/kg/injection, schedule: Q04DX003 (ip), vehicle: saline with Tween-80
  T/C: 118 % of control
[3]
  T/C: 159 % of control
dose: 50.0 mg/kg/injection, schedule: Q04DX003 (ip), vehicle: saline with Tween-80
  T/C: 118 % of control
dose: 66.0 mg/kg/injection, schedule: Q04DX003 (ip), vehicle: saline with Tween-80
  T/C: 154 % of control
dose: 150.0 mg/kg/injection, schedule: Q04DX003 (ip), vehicle: saline with Tween-80
  T/C: 154 % of control

## CC1(C)CC2C[C@H]3CC[C@@H]4O[C@]34C2[C@H]1OC(=O)/C=C/c1ccccc1 (stereo partly specified)
dose: 74.5 mg/kg/injection, schedule: Q01DX001 (ip), vehicle: saline with Tween-80
  T/C: 100 % of control
dose: 149.0 mg/kg/injection, schedule: Q01DX001 (ip), vehicle: saline with Tween-80
  T/C: 99 % of control
dose: 298.0 mg/kg/injection, schedule: Q01DX001 (ip), vehicle: saline with Tween-80
  T/C: 99 % of control

## Cn1ccn(CCCCCCn2ccn(C)c2=S)c1=S
dose: 3.12 mg/kg/injection, schedule: Q01DX009 (ip), vehicle: saline
  T/C: 103 % of control
dose: 6.25 mg/kg/injection, schedule: Q01DX009 (ip), vehicle: saline
  T/C: 96 % of control
dose: 12.5 mg/kg/injection, schedule: Q01DX009 (ip), vehicle: suspension in saline
  T/C: 92 % of control

## CCCCCn1[nH]nc(C(=O)OC)c1=O (tested in a mixture with another compound)
dose: 50.0 mg/kg/injection, schedule: Q01DX005 (ip), vehicle: Klucel (hydroxypropylcellulose) (HPC)
  T/C: 102 % of control
dose: 100.0 mg/kg/injection, schedule: Q01DX005 (ip), vehicle: Klucel (hydroxypropylcellulose) (HPC)
  T/C: 95 % of control
dose: 200.0 mg/kg/injection, schedule: Q01DX005 (ip), vehicle: Klucel (hydroxypropylcellulose) (HPC)
  T/C: 103 % of control

## COc1cc([Se]c2ccccc2)ccc1N(C)C
dose: 30.0 mg/kg/injection, schedule: Q01DX005 (ip), vehicle: Klucel (hydroxypropylcellulose) (HPC)
  T/C: 101 % of control
[6]
  T/C: 107 % of control
[7]
  T/C: 100 % of control
[8]
  T/C: 113 % of control

## CC1=C(O)NC(CC(=O)C(O)CO)=CN1 (stereo unspecified)
dose: 25.0 mg/kg/injection, schedule: Q01DX009 (ip), vehicle: water
  T/C: 101 % of control
dose: 50.0 mg/kg/injection, schedule: Q01DX009 (ip), vehicle: water
  T/C: 100 % of control
dose: 100.0 mg/kg/injection, schedule: Q01DX009 (ip), vehicle: water
  T/C: 95 % of control
dose: 200.0 mg/kg/injection, schedule: Q01DX009 (ip), vehicle: water
  T/C: 95 % of control
dose: 400.0 mg/kg/injection, schedule: Q01DX009 (ip), vehicle: water
  T/C: 111 % of control
dose: 800.0 mg/kg/injection, schedule: Q01DX009 (ip), vehicle: water
  T/C: 117 % of control

## O=C1OC(O)c2cccc3cccc1c23 (stereo unspecified)
[6]
  T/C: 98 % of control
[7]
  T/C: 100 % of control
[8]
  T/C: 94 % of control

## Cc1cccc2c1NC(O)c1cccn1C2=O (stereo unspecified)
dose: 0.1 mg/kg/injection, schedule: Q01DX005 (ip), vehicle: water
  T/C: 98 % of control
dose: 0.2 mg/kg/injection, schedule: Q01DX005 (ip), vehicle: water
  T/C: 93 % of control
dose: 0.4 mg/kg/injection, schedule: Q01DX005 (ip), vehicle: water
  T/C: 93 % of control
dose: 0.8 mg/kg/injection, schedule: Q01DX005 (ip), vehicle: water
  T/C: 98 % of control
dose: 1.6 mg/kg/injection, schedule: Q01DX005 (ip), vehicle: water
  T/C: 93 % of control
dose: 5.0 mg/kg/injection, schedule: Q01DX005 (ip), vehicle: distilled water + Tween-80
  T/C: 103 % of control
dose: 10.0 mg/kg/injection, schedule: Q01DX005 (ip), vehicle: distilled water + Tween-80
  T/C: 94 % of control
dose: 20.0 mg/kg/injection, schedule: Q01DX005 (ip), vehicle: distilled water + Tween-80
  T/C: 98 % of control
dose: 40.0 mg/kg/injection, schedule: Q01DX005 (ip), vehicle: distilled water + Tween-80
  T/C: 95 % of control
dose: 80.0 mg/kg/injection, schedule: Q01DX005 (ip), vehicle: distilled water + Tween-80
  T/C: 94 % of control

## C=C1C(O)C2(O)OCC34C(CC5C(C)=CC(=O)C(O)C5(C)C23)OC(=O)C(OC(=O)C(C)(O)CC)C14 (stereo unspecified)
dose: 0.25 mg/kg/injection, schedule: Q01DX009 (ip), vehicle: saline + alcohol
  T/C: 106 % of control and 112 % of control
dose: 0.5 mg/kg/injection, schedule: Q01DX009 (ip), vehicle: saline + alcohol
  T/C: 118 % of control
